# Laboratory results taken from patent US12697326B2, “Methods of treating hepatic encephalopathy” (SALIX PHARMACEUTICALS, INC., priority 2008, dated 2026).
# Legend:
# [1] = test system: all-cause hospitalization in subjects with HE; test: All-cause hospitalization, first study; format: in vivo, human
# [2] = test system: Epworth Sleepiness Scale in subjects with HE; test: Epworth Sleepiness Scale total score; format: in vivo, human; details: 550 mg BID
# From the text: Total scores for the Epworth Sleepiness Scale were computed and summarized at baseline and Days 28, 56, 84, 112, 140 and 168 using descriptive statistics. Treatment differences for mean change in total scores from baseline to Days 28, 56, 84, 112, 140 and 168 were summarized and compared between treatments.
# [3] = test system: asterixis grade in subjects with HE; test: Level of change from baseline in asterixis grade by treatment group, first study; format: in vivo, human; details: 550 mg BID, Baseline to EOT
# Procedure: Asterixis (flapping tremor) was determined with the subject holding both arms and forearms extended with wrists dorsiflexed and fingers open for ≥30 seconds. Asterixis was measured on a continuum of 5 grades, e.g., grades 0 and 4=no abnormal movement vs. almost continuous flapping motions, respectively as shown below: • Grade 0=No tremors; • Grade 1=Rare flapping motions; • Grade 2=Occasional, irregular flaps; • Grade 3=Frequent flaps; and • Grade 4=Almost continuous flapping motions.
# subjects with HE = test: Treatment-emergent adverse events, first study; format: in vivo, human; details: rifaximin group
# From the text: A total of 79.9% of subjects (239 of 299) experienced TEAEs during the course of the study.
# [4] = test system: HE-related hospitalization in subjects with hepatic encephalopathy (HE); test: Time to first HE-related hospitalization, first study; format: in vivo, human; details: for Cummulative number of events / Number of events / Probability of no HE-related hospitalization: ITT
# From the text: Time to first HE-related hospitalization was computed as the number of days from the first dose of rifaximin to the first hospitalization for an HE related event. The analysis of time to first HE-related hospitalization was based on the comparison of time to hospitalization between rifaximin and placebo.
# FIG. 9 illustrates time to first HE-related hospitalization (e.g., hospitalization directly resulting from HE or hospitalization caused by HE) by treatment group in the ITT population in the first study. Table 19 presents estimates of the proportions of subjects who had their first HE-related hospitalization over the course of the Treatment Period and results of statistical analyses. Subjects who discontinued prior to hospitalization due to HE and prior to completion of the 6-month treatment period were censored at the time of discontinuation. […] This hazard ratio represents a 50% reduction, when compared with placebo, in the risk of hospitalization due to HE during the 6-month treatment period.
# Note for FIG. 9, the survival distribution estimate on y-axis represents the proportion of subjects without HE-related hospitalization. Dashed line represents rifaximin group and solid line represents placebo group. Open circles and open triangles represent censored subjects. Subjects who discontinued prior to hospitalization due to HE and prior to completion of the 6-month treatment period were censored at the time of discontinuation. Hepatic encephalopathy-related hospitalization was recorded on the HE-related hospitalization CRF.
# [5] = test system: Staphylococcus, Streptococcus, Enterococcus, and Enterobacteriaceae; details: cited from earlier work
# [6] = first HE-related hospitalization, Table 4, 550 mg BID, N = 140, Days >=168
# [7] = first HE-related hospitalization, Table 4; 550 mg BID; N = 140; Days [0-28)
# [8] = first HE-related hospitalization, Table 4, 550 mg BID, N = 140, Days [28-56]
# [9] = first HE-related hospitalization, Table 4; 550 mg BID; N = 140; Days [56-84)
# [10] = first HE-related hospitalization, Table 4; 550 mg BID; N = 140; Days [84-140)
# [11] = first HE-related hospitalization, Table 4; 550 mg BID; N = 140; Days [140-168)
# [12] = first HE-related hospitalization, Table 17, 550 mg BID, N = 140, Days >=168
# [13] = first HE-related hospitalization, Table 17; 550 mg BID; N = 140; Days [0-28)
# [14] = first HE-related hospitalization, Table 17; 550 mg BID; N = 140; Days [28-56)
# [15] = first HE-related hospitalization, Table 17; 550 mg BID; N = 140; Days [56-84)
# [16] = first HE-related hospitalization, Table 17; 550 mg BID; N = 140; Days [84-140)
# [17] = first HE-related hospitalization, Table 17; 550 mg BID; N = 140; Days [140-168)
# [18] = first study, first HE-related hospitalization, N = 140, treatment interval 0 to <28 days
# [19] = first study, first HE-related hospitalization, N = 140, treatment interval 28 to <56 days
# [20] = first study, first HE-related hospitalization, N = 140, treatment interval 56 to <84 days
# [21] = first study, first HE-related hospitalization, N = 140, treatment interval 84 to <140 days
# [22] = first study, first HE-related hospitalization, N = 140, treatment interval 140 to <168 days
# [23] = first study, first HE-related hospitalization, N = 140, treatment interval ≥168 days
structure (smiles),measurement,setting,value
CO[C@H]1/C=C/O[C@@]2(C)Oc3c(C)c(O)c4c(O)c(c5c(nc6cc(C)ccn65)c4c3C2=O)NC(=O)/C(C)=C\C=C\[C@H](C)[C@H](O)[C@@H](C)[C@@H](O)[C@@H](C)[C@H](OC(C)=O)[C@@H]1C [Rifaximin],reduction in risk of all-cause hospitalization compared with placebo,[1],30%
same,subjects with all-cause hospitalization (of 140),[1]; rifaximin group,46
same,all-cause hospitalization rate,"[1]; rifaximin group, normalized for exposure",0.90 events/PEY
same,"Change from Baseline for Epworth Sleepiness Total Score, Max",[2]; Baseline to Day 28,7
same,"Change from Baseline for Epworth Sleepiness Total Score, Mean",[2]; Baseline to Day 28,−0.2
same,"Change from Baseline for Epworth Sleepiness Total Score, Median",[2]; Baseline to Day 28,0.0
same,"Change from Baseline for Epworth Sleepiness Total Score, Min",[2]; Baseline to Day 28,−14
same,"Epworth Sleepiness Total Score, Max",[2]; Day 28,23
same,"Epworth Sleepiness Total Score, Mean",[2]; Day 28,10.0
same,"Epworth Sleepiness Total Score, Median",[2]; Day 28,9.0
same,"Epworth Sleepiness Total Score, Min",[2]; Day 28,0
same,"Change from baseline in asterixis grade, Max",[3],2
same,"Change from baseline in asterixis grade, Mean",[3],0.0
same,"Change from baseline in asterixis grade, Median",[3],0.0
same,"Change from baseline in asterixis grade, Min",[3],−2
same,Number of subjects with change from baseline in asterixis grade of 0,[3]; n = 139,108
same,Number of subjects with change from baseline in asterixis grade of 1,[3]; n = 139,10
same,Number of subjects with change from baseline in asterixis grade of 2,[3]; n = 139,2
same,Number of subjects with change from baseline in asterixis grade of 3,[3]; n = 139,0
same,Number of subjects with change from baseline in asterixis grade of 4,[3]; n = 139,0
same,Number of subjects with change from baseline in asterixis grade of −1,[3]; n = 139,18
same,Number of subjects with change from baseline in asterixis grade of −2,[3]; n = 139,1
same,Percent of subjects with change from baseline in asterixis grade of 0,[3]; n = 139,77.7%
same,Percent of subjects with change from baseline in asterixis grade of 1,[3]; n = 139,7.2%
same,Percent of subjects with change from baseline in asterixis grade of 2,[3]; n = 139,1.4%
same,Percent of subjects with change from baseline in asterixis grade of −1,[3]; n = 139,12.9%
same,Percent of subjects with change from baseline in asterixis grade of −2,[3]; n = 139,0.7%
same,"TEAE ascites, subjects",subjects with HE,11.4%
same,"TEAE diarrhea, subjects",subjects with HE,10.7%
same,"TEAE dizziness, subjects",subjects with HE,12.9%
same,"TEAE fatigue, subjects",subjects with HE,12.1%
same,"TEAE headache, subjects",subjects with HE,10%
same,"TEAE nausea, subjects",subjects with HE,14.3%
same,"TEAE peripheral edema, subjects",subjects with HE,15%
same,Cumulative Occurrences of Events,[4]; [6],23
same,Occurrences of Events,[4]; [6],0
same,Survival,[4]; [6],0.8108
same,Cumulative Occurrences of Events,[4]; [7],6
same,Occurrences of Events,[4]; [7],6
same,Survival,[4]; [7],1.0000
same,Cumulative Occurrences of Events,[4]; [8],10
same,Occurrences of Events,[4]; [8],4
same,Survival,[4]; [8],0.9564
same,Cumulative Occurrences of Events,[4]; [9],15
same,Occurrences of Events,[4]; [9],5
same,Survival,[4]; [9],0.9258
same,Cumulative Occurrences of Events,[4]; [10],20
same,Survival,[4]; [10],0.8848
same,Cumulative Occurrences of Events,[4]; [11],23
same,Occurrences of Events,[4]; [11],3
same,Survival,[4]; [11],0.8403
same,Cumulative Occurrences of Events,[4]; [12],19
same,Occurrences of Events,[4]; [12],0
same,Survival,[4]; [12],0.8475
same,Cumulative Occurrences of Events,[4]; [13],4
same,Occurrences of Events,[4]; [13],4
same,Survival,[4]; [13],1.0000
same,Cumulative Occurrences of Events,[4]; [14],8
same,Occurrences of Events,[4]; [14],4
same,Survival,[4]; [14],0.9711
same,Cumulative Occurrences of Events,[4]; [15],12
same,Occurrences of Events,[4]; [15],4
same,Survival,[4]; [15],0.9411
same,Cumulative Occurrences of Events,[4]; [16],17
same,Occurrences of Events,[4]; [16],5
same,Survival,[4]; [16],0.9094
same,Cumulative Occurrences of Events,[4]; [17],19
same,Occurrences of Events,[4]; [17],2
same,Survival,[4]; [17],0.8665
same,Cummulative number of events,[4]; [18],4
same,Number of events,[4]; [18],4
same,Probability of no HE-related hospitalization,[4]; [18],1.0000
same,Cummulative number of events,[4]; [19],8
same,Number of events,[4]; [19],4
same,Cummulative number of events,[4]; [20],12
same,Number of events,[4]; [20],4
same,Cummulative number of events,[4]; [21],17
same,Number of events,[4]; [21],5
same,Probability of no HE-related hospitalization,[4]; [21],0.9094
same,Cummulative number of events,[4]; [22],19
same,Number of events,[4]; [22],2
same,Cummulative number of events,[4]; [23],19
same,Number of events,[4]; [23],0
same,subjects with HE-related hospitalizations (of 140),"[4]; first study, rifaximin group",19
same,reduction in risk of hospitalization due to HE (HE-related) compared with placebo,"[4]; first study, 6-month treatment period",50%
same,"time to first HE related hospitalization vs placebo (FIG. 3, Kaplan Meier)",[4]; in vivo,increased time to hospitalization
same,"in vitro activity against species of Staphylococcus, Streptococcus, Enterococcus, and Enterobacteriaceae",[5],active
